Source: paper PMC2990587, “Central nervous system penetration and enhancement of temozolomide activity in childhood medulloblastoma models by poly(ADP-ribose) polymerase inhibitor AG-014699” (British Journal of Cancer, 2010)

Columns and labels:
PARP-1 [1] = molecular target: T1, PARP-1 (Homo sapiens, UniProt P09874); assay: PARP activity in permeabilised D283Med cells (10H anti-PAR immunoassay); format: cell-based
Description: Inhibition of PARP activity in 5000 exponentially growing D283Med cells was measured following treatment with a range of AG-014699 concentrations (0–1 μM), in comparison with DMSO-only controls. Maximally stimulated PARP activity was measured in replicate samples (n⩾3) of permeabilised cells by immunological detection of the amount of poly(ADP-ribose) (PAR) formed, using 10H anti-PAR antibody, during a 6-min incubation with NAD^+ and oligonucleotide (substrate and activator) by reference to a PAR (Biomol Research Labs, Plymouth, PA, USA) standard curve using a GCLP-validated assay described previously ([Plummer et al, 2005]).

PARP-1 [2] = molecular target: T1, PARP-1; assay: PARP activity in D283Med xenograft homogenates after AG-014699 dosing; format: in vivo, mouse
Description: One or four daily doses of PARP inhibitor AG-014699 (1 mg kg^−1 intraperitoneally (i.p.)) were given to CD-1 nude mice bearing established D283Med xenografts. At 0.5, 2, 6 and 24 h after the initial or fourth daily dose of AG-014699, three animals per time point were bled by cardiac puncture under general anaesthesia, and then killed. Plasma was separated from the blood samples using standard methods and stored at −80°C. The brains and tumours were removed, snap frozen in liquid nitrogen and stored at −80°C before analysis. Blood, tumour and brain tissue were removed from three untreated control animals and processed in the same way.
PARP activity was determined in homogenates of subcutaneous D283Med xenografts and brain tissue (see above). Maximally stimulated PARP activity was measured in replicate samples (n⩾3) of a 1 : 1000 dilution of the homogenate as described for permeabilised D283Med cells (see above). Data were calculated as pmol PAR per mg protein by reference to the PAR standard curve and protein content of the sample and expressed as a percentage of the corresponding tissue from the saline-treated control animals. The mean PARP activity in xenograft and brain samples taken at each time point was expressed as a percentage of the mean PARP activity of control xenografts from untreated mice (n=3).

D283Med xenografts = assay: Tumour growth inhibition in vivo, D283Med xenografts; design: species or system mouse
From the text: All of the in vivo experiments were reviewed and approved by the relevant institutional animal welfare committees, and performed according to national law. Female athymic nude mice (CD1 nu/nu; Charles River, Margate, UK) used for anti-tumour studies were maintained and handled in isolators under specific pathogen-free conditions. […], […] and […] (1 × 10^7 exponentially growing cells per mouse, harvested and implanted in growth media) xenografts were established by sub-cutaneous implantation into CD-1 nude mice. […] Treatment was initiated when sufficient number of mice had established tumours to allow randomisation into treatment groups: day 17 for […], day 26 for […] and day 32 for […]. […] For drug combinations, AG-014699 was administered immediately after administering temozolomide. […] Tumour growth delay (TGD) is defined as the time to RTV4 in drug-treated mice compared with the time to RTV4 in control (vehicle alone) mice. Median tumour volume is shown, rather than the mean, as this is generally accepted as the most statistically reliable representation of the average growth rate of tumours in a small group of mice, if a normal distribution of tumour volumes cannot be assumed. Tumour growth delay was calculated as: median time to RTV4 in treated group-median time to RTV4 in control group.

T1 sequence (P09874 whole entry): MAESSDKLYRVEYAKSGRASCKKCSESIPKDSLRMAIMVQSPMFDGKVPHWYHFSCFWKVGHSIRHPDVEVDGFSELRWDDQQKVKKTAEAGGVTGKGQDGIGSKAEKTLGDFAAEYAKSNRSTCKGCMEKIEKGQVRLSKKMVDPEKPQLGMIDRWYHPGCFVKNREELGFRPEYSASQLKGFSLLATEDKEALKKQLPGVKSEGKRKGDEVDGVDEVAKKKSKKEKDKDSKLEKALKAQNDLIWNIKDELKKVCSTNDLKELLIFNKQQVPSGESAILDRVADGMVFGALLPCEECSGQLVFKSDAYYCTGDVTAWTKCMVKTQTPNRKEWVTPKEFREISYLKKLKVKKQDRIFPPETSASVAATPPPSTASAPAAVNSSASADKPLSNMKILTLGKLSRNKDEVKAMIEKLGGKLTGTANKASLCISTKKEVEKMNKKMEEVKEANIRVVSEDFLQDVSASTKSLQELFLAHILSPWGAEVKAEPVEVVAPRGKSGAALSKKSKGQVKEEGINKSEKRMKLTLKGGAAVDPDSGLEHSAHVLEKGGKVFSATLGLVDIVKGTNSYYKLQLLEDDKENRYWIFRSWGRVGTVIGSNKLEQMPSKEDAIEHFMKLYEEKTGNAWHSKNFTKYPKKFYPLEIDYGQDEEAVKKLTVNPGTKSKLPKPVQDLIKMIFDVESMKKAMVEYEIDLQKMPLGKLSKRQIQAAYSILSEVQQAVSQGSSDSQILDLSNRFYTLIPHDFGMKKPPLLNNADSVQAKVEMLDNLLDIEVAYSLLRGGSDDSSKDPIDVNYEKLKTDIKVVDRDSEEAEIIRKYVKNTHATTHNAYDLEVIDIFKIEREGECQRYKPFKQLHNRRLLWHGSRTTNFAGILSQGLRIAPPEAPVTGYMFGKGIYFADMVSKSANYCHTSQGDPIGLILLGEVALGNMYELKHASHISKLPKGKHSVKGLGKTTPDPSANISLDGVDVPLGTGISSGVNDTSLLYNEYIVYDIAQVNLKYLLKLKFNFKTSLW

CNCc1ccc(-c2[nH]c3cc(F)cc4c3c2CCNC4=O)cc1 [AG-014699]
Inhibition of PARP-1 activity (PARP-1 [1]; 0.1 μM AG-014699): 80% | Inhibition of PARP-1 activity (PARP-1 [1]; 0.4 μM AG-014699): > 95% | inhibition at 0.1 µM (PARP-1 [1]; D283 Med, 0.1 μM AG-014699): 81.1% | inhibition at 0.4 µM (PARP-1 [1]; D283 Med, 0.4 μM AG-014699): 96.8% | inhibition at 1 µM (PARP-1 [1]; D283 Med, 1 μM AG-014699): 97.1% | Reduction of PARP activity in tumour (nadir) (PARP-1 [2]; D283Med xenograft, 6 h post-injection, similar after first and fourth dose, 1 mg kg−1 i.p.): around 75% | Reduction of PARP activity in xenograft tissue (PARP-1 [2]; abstract, time not stated): ≥ 75% | Median nadir body weight (% starting weight) (D283Med xenografts; D283Med-bearing mice, daily x5, TMZ 68 mg kg−1 p.o., AG-014699 1 mg kg−1 i.p.): 100 % starting weight | Median time to RTV4 (D283Med xenografts; D283Med, daily x5, TMZ 68 mg kg−1 p.o., AG-014699 1 mg kg−1 i.p.): 8 days | Complete regressions (D283Med xenografts; D283Med, mice with regression/group): 0/5 | Tumour growth delay (D283Med xenografts; D283Med, versus control time to RTV4): 1 days
